We go through 21 molecules from patent EP3789378A1, “PIPERIDINES OR PIPERIDONES SUBSTITUTED WITH UREA AND HETEROARYL” (Grünenthal GmbH, priority 2019, dated 2021).

Structures are written as SMILES.

One assay deals with T1, h FPR2 (Homo sapiens, UniProt P25090).
T1 construct: expressed in transfected cells
T1 sequence (P25090 1-351): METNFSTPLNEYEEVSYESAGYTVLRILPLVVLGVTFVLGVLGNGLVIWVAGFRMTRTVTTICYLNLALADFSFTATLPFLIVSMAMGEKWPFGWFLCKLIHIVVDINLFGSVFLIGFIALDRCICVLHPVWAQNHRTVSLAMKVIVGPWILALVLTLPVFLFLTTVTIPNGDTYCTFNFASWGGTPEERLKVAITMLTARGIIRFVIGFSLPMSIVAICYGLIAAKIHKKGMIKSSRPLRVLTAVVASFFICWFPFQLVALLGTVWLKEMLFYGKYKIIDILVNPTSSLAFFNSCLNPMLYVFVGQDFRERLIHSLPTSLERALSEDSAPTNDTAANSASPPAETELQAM
In words: Agonistic activity in hFPR2-Aq-CHO cells (FLIPR Calcium 5 fluorescence assay). In kind it is cell-based. As to conditions: 11 point half log dilution, final assay concentration from 10µM. Summed up:
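hFPR2-Aq-CHO cells were loaded with Calcium 5 dye for 30 min at 37 °C and equilibrated 10 min at room temperature. Compound (11 points, 10 µM to 100 pM final) was added in HBSS/HEPES/probenecid buffer pH 7.4. Fluorescence rise over basal across 5 min, relative to no-compound wells, gave EC50.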
Consider `COc1ccc([C@@H]2CN(C(=O)C3COC3)CC[C@H]2NC(=O)Nc2cc(C)ns2)nc1` (relative stereo) [Ex-119, trans-1-[3-(5-Methoxy-pyridin-2-yl)-1-(oxetane-3-carbonyl)-piperidin-4-yl]-3-(3-methyl-isothiazol-5-yl)-urea], for which the EC50 (usually the concentration needed to bring the measured effect to its halfway point) came to 9 nM. The same measure, in the same setting: for `COc1ccc([C@@H]2CN(C(=O)C3CCC(OC)CC3)CC[C@H]2NC(=O)Nc2ccc(Cl)cc2)nc1` (relative stereo) [Ex-81, trans-1-(4-chloro-phenyl)-3-[5-methoxy-1'-(4-methoxy-cyclohexanecarbonyl)-1',2',3',4',5',6'-hexahydro-[2,3']bipyridinyl-4'-yl]-urea] the value was 13 nM; for `COc1ccc([C@@H]2CN(C3COC3)CC[C@H]2NC(=O)Nc2ccc(Cl)cc2)nc1` (relative stereo) [Ex-108, trans-1-(4-chloro-phenyl)-3-(5-methoxy-1'-oxetan-3-yl-1',2',3',4',5',6'-hexahydro-[2,3']bipyridinyl-4'-yl)-urea], 7 nM.

Regarding `COc1cnc([C@@H]2CN(CCS(C)(=O)=O)CC[C@H]2NC(=O)Nc2ccc(Cl)cc2)c(F)c1` (relative stereo) [Ex-196, trans-1-(4-chloro-phenyl)-3-[3-fluoro-1'-(2-methanesulfonyl-ethyl)-5-methoxy-1',2',3',4',5',6'-hexahydro-[2,3']bipyridinyl-4'-yl]-urea], the EC50 is 0.7 nM. On the same count and under the same terms, the figure for `COc1ccc([C@@H]2CN(C(=O)c3ccc(C)nc3)CC[C@H]2NC(=O)Nc2ccc(Cl)cc2)nc1` (single isomer, unassigned) [Ex-54, trans-1-(4-chlorophenyl)-3-[3-(5-methoxypyridin-2-yl)-1-[(6-methylpyridin-3-yl)carbonyl]piperidin-4-yl]urea] is 0.6 nM; for `CNCCCN1CC[C@@H](NC(=O)Nc2ccc(Cl)cc2)[C@H](c2ccc(OC)cn2)C1` (relative stereo) [Ex-137, trans-1-(4-Chlorophenyl)-3-[3-(5-methoxy-pyridin-2-yl)-1-(3-methylamino-propyl)-piperidin-4-yl]-urea] it is 0.2 nM. The same measure, in the same setting: the figure for `O=C(Nc1ccccc1)N[C@@H]1CCN(CC(F)F)C[C@H]1c1ccc(Cl)cn1` (relative stereo) [Ex-153, trans-1-[3-(5-Chloro-pyridin-2-yl)-1-(2,2-difluoro-ethyl)-piperidin-4-yl]-3-phenyl-urea] is 12 nM; for `O=C(Nc1ccc(Cl)cc1)N[C@@H]1CCN(Cc2ccc(C(F)(F)F)nc2)C[C@H]1c1ccc(Cl)s1` (relative stereo) [Ex-74, trans-1-(4-chlorophenyl)-3-[3-(5-chlorothiophen-2-yl)-1-{[6-(trifluoromethyl)pyridin-3-yl]methyl}piperidin-4-yl]urea] it is 2 nM; for `COc1ccc([C@@H]2CN(C3(C#N)CC3)CC[C@H]2NC(=O)Nc2ccc(Cl)cc2)nc1` (relative stereo) [Ex-180, trans-1-(4-Chlorophenyl)-3-[1-(1-cyano-cyclopropyl)-3-(5-methoxy-pyridin-2-yl)-piperidin-4-yl]-urea] it is 0.5 nM.

Turning to `Cc1cc(NC(=O)N[C@@H]2CCN(c3ccncn3)C[C@H]2c2ccc(Cl)cn2)sn1` (relative stereo) [Ex-13, trans-1-(5-chloro-1'-pyrimidin-4-yl-1',2',3',4',5',6'-hexahydro-[2,3']bipyridinyl-4'-yl)-3-(3-methyl-isothiazol-5-yl)-urea], the concentration for a half-maximal effect (EC50) was determined as 2 nM. With `O=C(Nc1ccccc1)N[C@@H]1CCN(C(=O)C2CCNCC2)C[C@H]1c1ccc(Cl)cn1` (relative stereo) [Ex-167, trans-1-[3-(5-Chloro-pyridin-2-yl)-1-(piperidine-4-carbonyl)-piperidin-4-yl]-3-phenyl-urea], the EC50 is 85 nM. On the same count and under the same terms, for `COc1cnc([C@@H]2CN(C3COC3)CC[C@H]2NC(=O)Nc2ccc(Cl)cc2)c(F)c1` (relative stereo) [Ex-218, trans-1-(4-chloro-phenyl)-3-(3-fluoro-5-methoxy-1'-oxetan-3-yl-1',2',3',4',5',6'-hexahydro-[2,3']bipyridinyl-4'-yl)-urea] the value was 4 nM; for `CS(=O)(=O)n1ccc(CN2CC[C@@H](NC(=O)Nc3ccccc3)[C@H](c3ccc(Cl)s3)C2)n1` (single isomer, unassigned) [Ex-57, trans-1-(-3-(5-chlorothiophen-2-yl)-1-((1-(methylsulfonyl)-1H-pyrazol-3-yl)methyl)piperidin-4-yl)-3-phenylurea], 55 nM. Consider `COc1ccc([C@@H]2CN(CC3(O)CC3)CC[C@H]2NC(=O)Nc2ccc(Cl)cc2)nc1` (relative stereo) [Ex-163, trans-1-(4-Chlorophenyl)-3-[1-[(1-hydroxy-cyclopropyl)-methyl]-3-(5-methoxy-pyridin-2-yl)-piperidin-4-yl]-urea], for which the EC50 was found to be 0.8 nM. Same read-out and setting: the figure for `COc1ccc([C@@H]2CN(c3ccc(F)cc3)CC[C@H]2NC(=O)Nc2cc(C)ns2)nc1` (relative stereo) [Ex-20, trans-1-[1'-(4-fluoro-phenyl)-5-methoxy-1',2',3',4',5',6'-hexahydro-[2,3']bipyridinyl-4'-yl]-3-(3-methyl-isothiazol-5-yl)-urea] is 1 nM; for `COc1ccc([C@@H]2CN(CC3(O)CCC3)CC[C@H]2NC(=O)Nc2ccc(Cl)cc2)nc1` (relative stereo) [Ex-220, trans-1-(4-chloro-phenyl)-3-[1'-(1-hydroxy-cyclobutylmethyl)-5-methoxy-1',2',3',4',5',6'-hexahydro-[2,3']bipyridinyl-4'-yl]-urea] it is 0.4 nM; for `COc1ccc([C@@H]2CN(Cc3cc(C(F)(F)F)on3)CC[C@H]2NC(=O)Nc2ccc(Cl)cc2)nc1` (single isomer, unassigned) [Ex-37, trans-1-(4-chlorophenyl)-3-[3-(5-methoxypyridin-2-yl)-1-{[5-(trifluoromethyl)-1,2-oxazol-3-yl]methyl}piperidin-4-yl]urea] it is 0.13 nM. Consider `COc1ccc([C@@H]2CN(CC3(O)COC3)CC[C@H]2NC(=O)Nc2ccc(Cl)cc2)nc1` (relative stereo) [Ex-194, trans-1-(4-chloro-phenyl)-3-[1'-(3-hydroxy-oxetan-3-ylmethyl)-5-methoxy-1',2',3',4',5',6'-hexahydro-[2,3']bipyridinyl-4'-yl]-urea], for which the EC50 was 1.3 nM. Turning to `COc1ccc([C@@H]2CN(c3ccncn3)CC[C@H]2NC(=O)Nc2cc(C)ns2)cn1` (relative stereo) [Ex-4, trans-1-(6'-methoxy-1-pyrimidin-4-yl-1,2,3,4,5,6-hexahydro-[3,3']bipyridinyl-4-yl)-3-(3-methyl-isothiazol-5-yl)-urea], the EC50 is 11 nM. Still for that read-out and setting: for `O=C(Nc1ccc(Cl)cc1)N[C@@H]1CCN(c2ccc(F)cc2)C[C@H]1c1ccc(Cl)cn1` (relative stereo) [Ex-12, trans-1-[5-chloro-1'-(4-fluoro-phenyl)-1',2',3',4',5',6'-hexahydro-[2,3']bipyridinyl-4'-yl]-3-(4-chlorophenyl)-urea] the value was 9 nM.

The assay is the same for the next values; noted with them: agonistic response at 0.1µM.
With `O=C(Nc1ccccc1)N[C@@H]1CCN(C2CNC2)C[C@H]1c1ccc(Cl)cn1` (relative stereo) [Ex-185, trans-1-(1'-azetidin-3-yl-5-chloro-1',2',3',4',5',6'-hexahydro-[2,3']bipyridinyl-4'-yl)-3-phenyl-urea], the activation at 0.1 µM was 19%.
